Measurements: paper PMC9030691, “Toxicokinetics of β-Amanitin in Mice and In Vitro Drug–Drug Interaction Potential” (Pharmaceutics, 2022)
Read-outs that look alike come from different tables or passages of the source.

Tests used:
[1] = Urinary and fecal excretion in mice; type: in vivo, male ICR mice; conditions: male mice, LC-HRMS, mean ± SD; for dose excreted: ICR, mouse
Description: β-amanitin in water was administered by iv bolus injection into the tail vein at 0.8 mg/kg dose (n = 4) and by oral gavage at 10 mg/kg dose (n = 3) to male mice. Mice were returned to metabolic cages, and urine and feces samples were collected individually at 0–6, 6–12, 12–24, 24–36, and 36–48 h. Urine and feces samples were stored at −80 °C until the analysis.
Each tissue and feces sample was homogenized in water (1:3, w/v). In total, 50 μL aliquots of urine, tissue homogenates, or feces homogenates were mixed with 150 μL of 4′-hydroxydiclofenac solution (IS, 5 ng/mL in methanol). The other steps were as described for plasma sample preparation.

HEK293 control cells = assay: Uptake of amanitins into HEK293 control cells; type: in vitro ADME; conditions: 50 μM amanitin, 5 min, 37 °C, HBSS, LC-HRMS, n = 3
Description: HEK293 cells overexpressing OCT2, MATE2-K, OAT1, OAT3, OATP1B1, and OATP1B3 transporters and HEK293-control cells were maintained in a humidified atmosphere of 5% CO2 at 37 °C in DMEM supplemented with 10% FBS and 5 mM non-essential amino acids. In the case of HEK293-OATP1B1, -OATP1B3, and MATE2-K cells, 2 mM sodium butyrate was added to the culture medium to enhance transport activity. Cells were seeded at 2 × 10^5 cells/well in poly-D-lysine-coated 24-well plates. After 24 h, the growth medium was discarded, and attached cells were washed with HBSS and preincubated for 20 min in HBSS at 37 °C. Stock solutions of α- and β-amanitin and representative inhibitors of transporters were diluted in HBSS to make the final concentration: cimetidine 1 mM (for OCT2), cimetidine 100 μM (for MATE2-K), probenecid 100 μM (for OAT1 and OAT3), and rifampin 100 μM (for OATP1B1 and OATP1B3). Uptake of 50 μM α- and β-amanitin was measured in the absence and presence of representative inhibitors for 5 min at 37 °C. Plates were placed immediately on ice, and cells were then washed twice with 1 mL of ice-cold HBSS. Residual HBSS was removed thoroughly from the plates. Subsequently, 150 μL of 80% methanol containing IS was added to each sample well, and the cell plates were shaken gently for 20 min at 4 °C. The remaining steps were the same as described for plasma sample preparation.

CYP2D6 = target: T1, CYP2D6 (Homo sapiens, UniProt P10635); assay: CYP2D6 inhibition in human liver microsomes; type: in vitro ADME; conditions: ultrapooled human liver microsomes 0.2 mg/mL, 5 μM bufuralol, β-amanitin 0.1–100 μM, pH 7.4, 37 °C, 15 min, LC-MS/MS, n = 3, read-out: IC50, CYP2D6 bufuralol 1′-hydroxylase
T1 construct: from tissue; host or cells: ultrapooled human liver microsomes
Description: (§1) β-amanitin inhibition (IC50 values) of CYP1A2, CYP2A6, CYP2B6, CYP2C8, CYP2C9, CYP2C19, CYP2D6, and CYP3A4 enzyme activities in HLMs were evaluated using LC-MS/MS and CYP substrates as previously described. Each incubation mixture was made up to a volume of 100 μL including HLMs (0.2 mg/mL), 50 mM potassium phosphate buffer (pH 7.4), 1.0 mM NADPH, 10 mM magnesium chloride, various concentrations of β-amanitin (0.1–100 μM), a cocktail of seven CYP probe substrates (50 μM phenacetin for CYP1A2, 2.5 μM coumarin for CYP2A6, 2 μM amodiaquine for CYP2C8, 10 μM diclofenac for CYP2C9, 100 μM [S]-mephenytoin for CYP2C19, 5 μM bufuralol for CYP2D6, and 2.5 μM midazolam for CYP3A4 in acetonitrile), or 50 μM bupropion for CYP2B6. The reactions were initiated with NADPH followed by incubation in a shaking water bath at 37 °C for 15 min with or without 30 min preincubation with NADPH. Reactions were stopped with 50 μL of ice-cold methanol containing ^13C2, ^15N-acetaminophen and d9-1′-hydroxybufuralol (ISs). Incubation mixtures were centrifuged at 13,000× g for 8 min at 4 °C. An aliquot (5 μL) of the supernatant from the reaction mixture was analyzed by the previous LC-MS/MS method.

CYP2A6 = target: T2, CYP2A6 (Homo sapiens, UniProt P11509); assay: CYP2A6 inhibition in human liver microsomes; type: in vitro ADME; conditions: ultrapooled human liver microsomes 0.2 mg/mL, 2.5 μM coumarin, β-amanitin 0.1–100 μM, pH 7.4, 37 °C, 15 min, LC-MS/MS, n = 3, read-out: IC50, CYP2A6 coumarin 7-hydroxylase
T2 construct: from tissue; host or cells: ultrapooled human liver microsomes
Description: as §1

CYP2B6 = target: T3, CYP2B6 (Homo sapiens, UniProt P20813); assay: CYP2B6 inhibition in human liver microsomes; type: in vitro ADME; conditions: ultrapooled human liver microsomes 0.2 mg/mL, 50 μM bupropion, β-amanitin 0.1–100 μM, pH 7.4, 37 °C, 15 min, LC-MS/MS, n = 3, read-out: IC50, CYP2B6 bupropion hydroxylase
T3 construct: from tissue; host or cells: ultrapooled human liver microsomes
T3 sequence (P20813 1-491): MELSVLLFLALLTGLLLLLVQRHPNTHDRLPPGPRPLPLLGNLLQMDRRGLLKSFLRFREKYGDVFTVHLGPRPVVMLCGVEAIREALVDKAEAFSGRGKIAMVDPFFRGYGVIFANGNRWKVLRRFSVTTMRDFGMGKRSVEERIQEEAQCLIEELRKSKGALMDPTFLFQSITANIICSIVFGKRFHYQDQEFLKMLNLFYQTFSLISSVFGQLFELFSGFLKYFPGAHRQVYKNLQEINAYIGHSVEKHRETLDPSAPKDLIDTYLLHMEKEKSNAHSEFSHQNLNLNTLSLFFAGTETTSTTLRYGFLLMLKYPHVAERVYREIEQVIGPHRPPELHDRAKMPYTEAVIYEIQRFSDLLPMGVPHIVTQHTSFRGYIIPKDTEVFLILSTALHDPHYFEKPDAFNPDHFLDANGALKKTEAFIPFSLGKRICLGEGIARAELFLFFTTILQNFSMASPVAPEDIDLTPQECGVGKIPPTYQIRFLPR
Description: as §1

[2] = with 30 min NADPH preincubation

T1 sequence (P10635 whole entry): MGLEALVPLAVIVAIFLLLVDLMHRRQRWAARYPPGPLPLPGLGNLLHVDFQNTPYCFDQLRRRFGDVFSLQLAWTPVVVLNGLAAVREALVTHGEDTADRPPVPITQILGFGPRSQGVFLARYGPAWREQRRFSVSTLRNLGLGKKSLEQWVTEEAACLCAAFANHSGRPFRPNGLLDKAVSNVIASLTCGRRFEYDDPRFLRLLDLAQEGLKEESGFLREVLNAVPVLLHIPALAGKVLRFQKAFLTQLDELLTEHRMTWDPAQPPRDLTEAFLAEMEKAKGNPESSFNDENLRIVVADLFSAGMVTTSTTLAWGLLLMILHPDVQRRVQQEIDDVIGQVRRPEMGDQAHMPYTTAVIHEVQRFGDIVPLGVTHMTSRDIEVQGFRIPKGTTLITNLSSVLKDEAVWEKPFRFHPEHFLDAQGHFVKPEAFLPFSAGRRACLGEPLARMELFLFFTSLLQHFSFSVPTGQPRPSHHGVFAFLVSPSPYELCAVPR
T2 sequence (P11509 whole entry): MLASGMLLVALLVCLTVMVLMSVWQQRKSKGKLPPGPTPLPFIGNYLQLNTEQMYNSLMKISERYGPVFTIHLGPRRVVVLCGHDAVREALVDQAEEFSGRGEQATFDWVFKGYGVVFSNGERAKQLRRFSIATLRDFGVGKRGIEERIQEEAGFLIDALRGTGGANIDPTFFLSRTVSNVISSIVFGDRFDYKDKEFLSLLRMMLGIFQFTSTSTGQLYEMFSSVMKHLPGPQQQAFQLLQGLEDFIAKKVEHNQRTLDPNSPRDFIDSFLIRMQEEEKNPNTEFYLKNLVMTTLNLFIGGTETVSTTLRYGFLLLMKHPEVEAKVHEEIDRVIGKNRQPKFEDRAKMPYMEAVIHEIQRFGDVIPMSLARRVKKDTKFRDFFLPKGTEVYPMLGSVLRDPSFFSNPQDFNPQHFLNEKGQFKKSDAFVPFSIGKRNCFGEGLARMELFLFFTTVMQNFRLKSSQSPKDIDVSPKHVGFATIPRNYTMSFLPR

CC[C@H](C)[C@@H]1NC(=O)CNC(=O)[C@@H]2Cc3c([nH]c4cc(O)ccc34)[S@+]([O-])C[C@H](NC(=O)CNC1=O)C(=O)N[C@@H](CC(=O)O)C(=O)N1C[C@H](O)C[C@H]1C(=O)N[C@@H]([C@@H](C)[C@@H](O)CO)C(=O)N2 [β-amanitin]
dose excreted ([1]; iv bolus 0.8 mg/kg, metabolic cages, urine 0–48 h, n = 4, read-out: Total urinary recovery (parent form) after 48 h): 52.3 ± 19.8% | dose excreted ([1]; oral gavage 10 mg/kg, feces 0–48 h, n = 3, read-out: Cumulative fecal excretion for 48 h): 72.4 ± 24.7% | dose excreted ([1]; oral gavage 10 mg/kg, urine 0–48 h, n = 3, read-out: Cumulative urinary excretion for 48 h): 2.4 ± 1.2% | Total fecal recovery over 48 h ([1]; iv bolus 0.8 mg/kg, feces 0–48 h, n = 4): 7.6% ± 1.2 | Urinary recovery within 6 h ([1]; iv bolus 0.8 mg/kg, urine 0–6 h, n = 4): 40.9% ± 27.6 | Uptake into HEK293 control cells, β- versus α-amanitin (HEK293 control cells): greater than α-amanitin | IC50 (CYP2D6; [2]): 71.6 µM | IC50 (CYP2D6; without NADPH preincubation): 76.2 µM | IC50 (CYP2A6; [2]): 80.1 µM | IC50 (CYP2A6; without NADPH preincubation): 93.9 µM | IC50 (CYP2B6; [2]): 34.8 µM | IC50 (CYP2B6; without NADPH preincubation): 38 µM
